In ChEMBL document CHEMBL4387789, “Linear Peptides Containing d-Leucine with Neuroprotective Activities from the Leech Whitmania pigra Whitman” (J Nat Prod, 2019):

Assays:
[1] = Stability in 50% diluted pooled rat serum assessed compound degradation at 1.5 mg measured within 2 hrs by HPLC analysis; assay type: ADME, cell-free
[2] = Stability in 50% diluted pooled rat serum assessed parent compound remaining at 1.5 mg measured after 24 hrs by HPLC analysis; assay type: ADME, cell-free; settings: read-out: Stability
N2a [3] = experiment: Neuroprotective activity against oxygen-glucose deprivation/reperfusion injury in mouse Neuro2a cells assessed as cell viability at 50 uM added 4 hrs prior to oxygen-glucose deprivation induction by MTT assay (Rvb 61 +/- 5%); assay type: functional; settings: read-out: Activity
N2a [4] = experiment: Neuroprotective activity against oxygen-glucose deprivation/reperfusion injury in mouse Neuro2a cells assessed as cell viability at 6.25 uM added 4 hrs prior to oxygen-glucose deprivation induction by MTT assay (Rvb 61 +/- 5%); assay type: functional; settings: read-out: Activity

Row | Stability [1] | remaining at 24 h [2] | Compound | viability at 50 µM (N2a [3]) | viability at 6.25 µM (N2a [4])
1 | Stable |  | CC(C)C[C@H](NC(=O)[C@@H](NC(=O)CNC(=O)[C@H](CO)NC(=O)[C@H](CC(C)C)NC(=O)[C@@H](N)CC(C)C)C(C)C)C(=O)NCC(=O)O |  | 
2 |  | 65% | CC(C)C[C@H](N)C(=O)N[C@H](CC(C)C)C(=O)N[C@@H](CO)C(=O)NCC(=O)N[C@H](C(=O)N[C@H](CC(C)C)C(=O)NCC(=O)NCC(=O)O)C(C)C | 82% | 
3 |  | 65% | CC(C)C[C@H](N)C(=O)N[C@H](CC(C)C)C(=O)N[C@@H](CO)C(=O)NCC(=O)N[C@H](C(=O)O)C(C)C | 86% | 
4 | Stable |  | CC(C)C[C@H](NC(=O)[C@@H](NC(=O)CNC(=O)[C@H](CO)NC(=O)[C@H](CC(C)C)NC(=O)[C@@H](N)CC(C)C)C(C)C)C(=O)NCC(=O)NCC(=O)O |  | 
5 |  | 65% | CC(C)C[C@H](N)C(=O)N[C@H](CC(C)C)C(=O)N[C@@H](CO)C(=O)NCC(=O)N[C@H](C(=O)N[C@H](CC(C)C)C(=O)NCC(=O)O)C(C)C |  | 79%
6 | Stable |  | CC(C)C[C@H](NC(=O)[C@@H](N)CC(C)C)C(=O)N[C@@H](CO)C(=O)NCC(=O)N[C@H](C(=O)O)C(C)C |  | 
7 |  |  | CC1=NN(c2ccccc2)C(=O)C1 [EDARAVONE] | 90% | 
